Where two headings read alike, the source gives them in different places.
Tested on: Phakopsora pachyrhizi
Assay: Asian soybean rust (PHAKPA) disease control on soybean seedlings
Type: in vivo
Conditions: High volume application at 25 ppm; for pest or weed control at 25 ppm: Phakopsora pachyrhizi
Method: Example C: Evaluation of Fungicidal Activity: Asian Soybean Rust (Phakopsora pachyrhizi; Bayer Code […]) Technical grades of materials were dissolved in acetone, which were then mixed with nine volumes of water containing 0.011% Tween 20. The fungicide solutions were applied onto soybean seedlings using an automated booth sprayer to run-off. All sprayed plants were allowed to air dry prior to further handling. Soybean plants (variety Williams 82) were grown in soil-less Metro mix, with one plant per pot. Two week old seedlings were used for testing. Plants were inoculated either 3 days prior to or 1 day after fungicide treatments. Plants were incubated for 24 h in a dark dew room at 22° C. and 100% relative humidity then transferred to a growth room at 23° C. for disease to develop. Disease severity was assessed on the sprayed leaves.

[1] = 24 h, 1 day protectant, read-out: PHAKPA 1DP (1 Day Protectant) disease control
[2] = 72 h, 3 day curative, read-out: PHAKPA 3DC (3 Day Curative) disease control

| SMILES | pest or weed control at 25 ppm [1] [%] | pest or weed control at 25 ppm [2] [%] | PHAKPA 1DP (1 Day Protectant) disease control (1 day protectant) | PHAKPA 3DC (3 Day Curative) disease control (3 day curative) |
| --- | --- | --- | --- | --- |
| COc1ccc([C@@H](C)[C@@H](C)OC(=O)[C@H](C)NC(=O)c2nccc(OC)c2OC(C)=O)c(C)c1 [Example 183] | > 80 | < 80 | – | – |
| COc1ccnc(C(=O)N[C@H](C(=O)O[C@@H](C)[C@@H](C)c2ccc(F)cc2C)C(C)C)c1OC(C)=O [Example 184] | > 80 | > 80 | – | – |
| COc1ccnc(C(=O)N[C@H](C(=O)O[C@@H](C)[C@H](C)c2ccc(F)cc2C)C(C)C)c1OC(C)=O [Example 185] | < 0 | < 0 | – | – |
| COc1ccnc(C(=O)N[C@H](C(=O)O[C@@H](C)[C@H](C)c2ccccc2C)C(C)C)c1OC(C)=O [Example 186] | < 80 | < 80 | – | – |
| COc1ccnc(C(=O)N[C@H](C(=O)O[C@@H](C)[C@@H](C)c2ccc(F)cc2)C(C)C)c1OC(C)=O [Example 187] | > 80 | < 0 | – | – |
| COc1ccc([C@H](C)[C@H](C)OC(=O)[C@@H](NC(=O)c2nccc(OC)c2OC(C)=O)C(C)C)c(C)c1 [Example 188] | > 80 | < 80 | – | – |
| COc1ccnc(C(=O)N[C@H](C(=O)O[C@H](C)[C@H](C)c2ccc(F)cc2C)C(C)C)c1OC(C)=O [Example 189] | > 80 | < 80 | – | – |
| COc1ccnc(C(=O)N[C@H](C(=O)O[C@H](C)[C@@H](C)c2ccc(F)cc2C)C(C)C)c1OC(C)=O [Example 190] | < 0 | < 0 | – | – |
| COc1ccnc(C(=O)N[C@H](C(=O)O[C@H](C)[C@@H](C)c2ccccc2C)C(C)C)c1OC(C)=O [Example 191] | < 80 | < 80 | – | – |
| COc1ccnc(C(=O)N[C@H](C(=O)O[C@H](C)[C@H](C)c2ccc(F)cc2)C(C)C)c1OC(C)=O [Example 192] | < 80 | < 0 | – | – |
| COc1ccc([C@@H](C)[C@@H](C)OC(=O)[C@@H](NC(=O)c2nccc(OC)c2OC(C)=O)C(C)C)c(C)c1 [Example 193] | < 80 | < 0 | – | – |
| COc1ccnc(C(=O)N[C@H](C)C(=O)O[C@@H](C)[C@H](C)c2ccccc2C)c1OC(C)=O [Example 194] | < 0 | < 0 | – | – |
| COc1ccnc(C(=O)N[C@H](C)C(=O)O[C@H](C)[C@H](C)c2ccc(F)cc2C)c1OC(C)=O [Example 195] | < 80 | < 0 | – | – |
| COc1ccnc(C(=O)NCC(=O)O[C@@H](C)[C@@H](C)c2ccc(F)cc2C)c1OC(=O)C(C)C [Example 196] | – | – | A (>80) | B (≤80) |
| COc1ccnc(C(=O)NCC(=O)O[C@@H](C)[C@H](C)c2ccc(F)cc2C)c1OC(=O)C(C)C [Example 197] | < 0 | < 0 | – | – |
| COc1ccnc(C(=O)NCC(=O)O[C@@H](C)[C@H](C)c2ccccc2C)c1OC(=O)C(C)C [Example 198] | < 0 | < 0 | – | – |
| COc1ccnc(C(=O)NCC(=O)O[C@@H](C)[C@@H](C)c2ccc(F)cc2)c1OC(=O)C(C)C [Example 199] | < 0 | < 0 | – | – |
| COc1ccc([C@H](C)[C@H](C)OC(=O)CNC(=O)c2nccc(OC)c2OC(=O)C(C)C)c(C)c1 [Example 200] | < 80 | – | – | B (≤80) |
| COc1ccnc(C(=O)N[C@@H](C)C(=O)O[C@@H](C)[C@H](C)c2ccc(F)cc2C)c1OC(=O)C(C)C [Example 201] | < 80 | < 80 | – | – |
| COc1ccnc(C(=O)N[C@@H](C)C(=O)O[C@@H](C)[C@H](C)c2ccccc2C)c1OC(=O)C(C)C [Example 202] | – | < 0 | B (≤80) | – |
| COc1ccnc(C(=O)N[C@@H](C)C(=O)O[C@@H](C)[C@@H](C)c2ccc(F)cc2)c1OC(=O)C(C)C [Example 203] | – | – | A (>80) | B (≤80) |
| COc1ccc([C@H](C)[C@H](C)OC(=O)[C@H](C)NC(=O)c2nccc(OC)c2OC(=O)C(C)C)c(C)c1 [Example 204] | – | – | A (>80) | A (>80) |
| COc1ccnc(C(=O)N[C@H](C(=O)O[C@@H](C)[C@@H](C)c2ccc(F)cc2C)C(C)C)c1OC(=O)C(C)C [Example 205] | > 80 | – | – | B (≤80) |

| SMILES | pest or weed control at 25 ppm [1] [%] | pest or weed control at 25 ppm [2] [%] | PHAKPA 1DP (1 Day Protectant) disease control (1 day protectant) | PHAKPA 3DC (3 Day Curative) disease control (3 day curative) |
| --- | --- | --- | --- | --- |
| COc1ccnc(C(=O)N[C@H](C(=O)O[C@@H](C)[C@@H](C)c2ccc(F)cc2C)C(C)C)c1OC(=O)C(C)C [Example 206] | – | – | B (≤80) | D (≤0) |
| COc1ccnc(C(=O)N[C@H](C(=O)O[C@@H](C)[C@@H](C)c2ccc(F)cc2C)C(C)C)c1OC(=O)C(C)C [Example 207] | – | – | B (≤80) | D (≤0) |
| COc1ccnc(C(=O)N[C@H](C(=O)O[C@@H](C)[C@@H](C)c2ccc(F)cc2C)C(C)C)c1OC(=O)C(C)C [Example 208] | – | – | A (>80) | D (≤0) |
| COc1ccnc(C(=O)N[C@H](C(=O)O[C@@H](C)[C@@H](C)c2ccc(F)cc2C)C(C)C)c1OC(=O)C(C)C [Example 209] | – | – | A (>80) | A (>80) |
| COc1ccnc(C(=O)N[C@H](C(=O)O[C@@H](C)[C@H](C)c2ccc(F)cc2C)C(C)C)c1OC(=O)C(C)C [Example 210] | < 0 | < 0 | – | – |
| COc1ccnc(C(=O)N[C@H](C(=O)O[C@@H](C)[C@H](C)c2ccccc2C)C(C)C)c1OC(=O)C(C)C [Example 211] | < 80 | < 0 | – | – |
| COc1ccnc(C(=O)N[C@H](C(=O)O[C@@H](C)[C@@H](C)c2ccc(F)cc2)C(C)C)c1OC(=O)C(C)C [Example 212] | < 80 | < 80 | – | – |
| COc1ccc([C@H](C)[C@H](C)OC(=O)[C@@H](NC(=O)c2nccc(OC)c2OC(=O)C(C)C)C(C)C)c(C)c1 [Example 213] | > 80 | < 80 | – | – |
| COc1ccnc(C(=O)N[C@H](C(=O)O[C@H](C)[C@H](C)c2ccc(F)cc2C)C(C)C)c1OC(=O)C(C)C [Example 214] | < 80 | < 80 | – | – |
| COc1ccnc(C(=O)N[C@H](C(=O)O[C@H](C)[C@@H](C)c2ccccc2C)C(C)C)c1OC(=O)C(C)C [Example 215] | < 80 | < 80 | – | – |
| COc1ccnc(C(=O)N[C@H](C(=O)O[C@H](C)[C@H](C)c2ccc(F)cc2)C(C)C)c1OC(=O)C(C)C [Example 216] | < 80 | < 0 | – | – |
| COc1ccc([C@@H](C)[C@@H](C)OC(=O)[C@@H](NC(=O)c2nccc(OC)c2OC(=O)C(C)C)C(C)C)c(C)c1 [Example 217] | < 80 | < 0 | – | – |
| COc1ccnc(C(=O)N[C@H](C)C(=O)O[C@@H](C)[C@H](C)c2ccc(F)cc2C)c1OC(=O)C(C)C [Example 218] | < 0 | < 80 | – | – |
| COc1ccnc(C(=O)N[C@H](C)C(=O)O[C@H](C)[C@H](C)c2ccc(F)cc2C)c1OC(=O)C(C)C [Example 219] | < 0 | < 0 | – | – |
| COc1ccc([C@@H](C)[C@@H](C)OC(=O)[C@H](C)NC(=O)c2nccc(OC)c2OC(C)=O)c(C)c1 [Example 220] | – | – | B (≤80) | B (≤80) |
| COc1ccnc(C(=O)NCC(=O)O[C@@H](C)[C@@H](C)c2ccc(F)cc2C)c1OC(=O)C(C)C [Example 221] | – | – | D (≤0) | D (≤0) |
| COc1ccc([C@H](C)[C@H](C)OC(=O)CNC(=O)c2nccc(OC)c2OC(=O)C(C)C)c(C)c1 [Example 224] | – | – | B (≤80) | D (≤0) |
| COc1ccnc(C(=O)N[C@@H](C)C(=O)O[C@H](C)[C@@H](C)c2ccccc2C)c1OC(=O)C(C)C [Example 225] | < 0 | < 0 | – | – |
| COc1ccnc(C(=O)N[C@@H](C)C(=O)O[C@H](C)[C@H](C)c2ccc(F)cc2)c1OC(=O)C(C)C [Example 226] | < 0 | < 80 | – | – |
| COc1ccc([C@@H](C)[C@@H](C)OC(=O)[C@H](C)NC(=O)c2nccc(OC)c2OC(=O)C(C)C)c(C)c1 [Example 227] | < 80 | < 0 | – | – |
| COc1ccnc(C(=O)N[C@@H](C)C(=O)O[C@@H](C)[C@H](C)c2ccccc2C)c1OC(=O)C(C)C [Example 228] | – | – | D (≤0) | D (≤0) |
| COc1ccnc(C(=O)N[C@@H](C)C(=O)O[C@@H](C)[C@@H](C)c2ccc(F)cc2)c1OC(=O)C(C)C [Example 229] | – | – | D (≤0) | D (≤0) |
| COc1ccc([C@H](C)[C@H](C)OC(=O)[C@H](C)NC(=O)c2nccc(OC)c2OC(=O)C(C)C)c(C)c1 [Example 230] | – | – | D (≤0) | D (≤0) |

From patent US20200399222A1, “PICOLINAMIDES AS FUNGICIDES” (Dow AgroSciences LLC, priority 2018, published 2020)
